Source: ChEMBL document CHEMBL4630901 (2021)

What was measured:
Details in all cases: Compound concentration 10.0 uM
[1] = target: T1, Alpha-2C adrenergic receptor (Homo sapiens) (UniProt P18825)
T1 sequence (whole entry): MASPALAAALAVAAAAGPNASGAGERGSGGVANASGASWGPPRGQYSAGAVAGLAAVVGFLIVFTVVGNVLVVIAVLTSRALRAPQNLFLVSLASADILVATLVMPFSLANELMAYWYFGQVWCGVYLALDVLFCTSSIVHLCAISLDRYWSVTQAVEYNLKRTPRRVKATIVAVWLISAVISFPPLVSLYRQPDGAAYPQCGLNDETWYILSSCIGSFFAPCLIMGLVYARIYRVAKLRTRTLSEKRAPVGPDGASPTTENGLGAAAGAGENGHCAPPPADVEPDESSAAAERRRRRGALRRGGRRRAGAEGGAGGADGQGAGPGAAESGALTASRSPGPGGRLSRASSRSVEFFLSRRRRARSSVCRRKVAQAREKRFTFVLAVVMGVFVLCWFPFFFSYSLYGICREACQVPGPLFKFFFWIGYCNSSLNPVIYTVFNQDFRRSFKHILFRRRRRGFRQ

[2] = target: GABA-A receptor; anion channel (Rattus norvegicus) (UniProt O09028+P15431+P18506+P18508+P19969+P20236+P23574+P23576+P28471+P28473+P30191+P62813+P63079+P63138+Q91ZM7+Q9ES14)
[3] = target: Mu-type opioid receptor (Homo sapiens) (UniProt P35372)
Chain of Mu-type opioid receptor (Homo sapiens) (P35372 whole entry): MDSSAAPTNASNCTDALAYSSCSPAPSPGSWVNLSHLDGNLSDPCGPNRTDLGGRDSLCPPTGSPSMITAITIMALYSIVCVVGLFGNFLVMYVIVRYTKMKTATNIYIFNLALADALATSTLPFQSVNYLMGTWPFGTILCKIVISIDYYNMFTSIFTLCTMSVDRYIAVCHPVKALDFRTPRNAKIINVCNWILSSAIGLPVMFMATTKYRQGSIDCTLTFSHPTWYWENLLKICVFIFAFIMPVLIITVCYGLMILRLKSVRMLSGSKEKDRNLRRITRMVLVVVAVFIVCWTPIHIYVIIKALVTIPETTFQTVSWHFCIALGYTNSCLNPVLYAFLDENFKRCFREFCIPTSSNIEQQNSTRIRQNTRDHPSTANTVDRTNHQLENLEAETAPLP

[4] = target: Histamine H1 receptor (Homo sapiens) (UniProt P35367)
Chain of Histamine H1 receptor (Homo sapiens) (P35367 whole entry): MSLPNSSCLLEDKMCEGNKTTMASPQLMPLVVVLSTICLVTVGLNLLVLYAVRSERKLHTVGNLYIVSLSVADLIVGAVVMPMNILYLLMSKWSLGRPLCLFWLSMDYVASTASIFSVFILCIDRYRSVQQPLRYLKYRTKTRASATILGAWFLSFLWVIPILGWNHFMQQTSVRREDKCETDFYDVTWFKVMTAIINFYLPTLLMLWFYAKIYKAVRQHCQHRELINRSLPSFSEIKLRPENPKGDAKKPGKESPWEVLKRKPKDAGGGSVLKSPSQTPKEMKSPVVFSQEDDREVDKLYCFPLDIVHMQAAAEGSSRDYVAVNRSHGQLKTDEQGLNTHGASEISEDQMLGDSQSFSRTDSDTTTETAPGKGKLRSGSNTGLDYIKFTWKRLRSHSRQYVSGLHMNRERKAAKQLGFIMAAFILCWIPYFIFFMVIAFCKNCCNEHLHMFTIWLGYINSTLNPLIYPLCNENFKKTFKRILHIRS

[5] = target: 5-hydroxytryptamine receptor 1B (Homo sapiens) (UniProt P28222)
Chain of 5-hydroxytryptamine receptor 1B (Homo sapiens) (P28222 whole entry): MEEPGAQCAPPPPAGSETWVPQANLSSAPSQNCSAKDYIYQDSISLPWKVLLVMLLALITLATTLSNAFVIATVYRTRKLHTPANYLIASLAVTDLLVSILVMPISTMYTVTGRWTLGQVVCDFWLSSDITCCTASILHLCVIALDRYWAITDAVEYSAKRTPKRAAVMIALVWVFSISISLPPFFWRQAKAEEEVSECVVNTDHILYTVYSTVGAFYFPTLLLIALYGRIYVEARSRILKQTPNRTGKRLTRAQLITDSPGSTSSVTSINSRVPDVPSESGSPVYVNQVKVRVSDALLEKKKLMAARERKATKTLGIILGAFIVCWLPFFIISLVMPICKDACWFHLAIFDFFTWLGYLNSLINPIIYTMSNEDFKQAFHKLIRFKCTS

[6] = target: Beta-2 adrenergic receptor (Homo sapiens) (UniProt P07550)
Chain of Beta-2 adrenergic receptor (Homo sapiens) (P07550 whole entry, looked up): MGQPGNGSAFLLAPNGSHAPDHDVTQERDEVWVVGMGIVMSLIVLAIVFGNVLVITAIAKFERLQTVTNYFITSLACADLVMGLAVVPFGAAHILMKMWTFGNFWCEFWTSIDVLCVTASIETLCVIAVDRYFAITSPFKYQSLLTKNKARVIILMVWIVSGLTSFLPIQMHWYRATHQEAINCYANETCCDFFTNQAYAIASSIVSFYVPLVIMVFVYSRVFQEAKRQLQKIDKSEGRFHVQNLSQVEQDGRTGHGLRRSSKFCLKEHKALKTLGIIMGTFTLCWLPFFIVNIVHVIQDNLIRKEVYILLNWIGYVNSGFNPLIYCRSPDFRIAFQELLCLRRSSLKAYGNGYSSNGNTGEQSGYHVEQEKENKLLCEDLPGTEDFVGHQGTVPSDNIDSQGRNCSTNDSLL

[7] = target: 5-hydroxytryptamine receptor 5A (Homo sapiens) (UniProt P47898)
Chain of 5-hydroxytryptamine receptor 5A (Homo sapiens) (P47898 whole entry): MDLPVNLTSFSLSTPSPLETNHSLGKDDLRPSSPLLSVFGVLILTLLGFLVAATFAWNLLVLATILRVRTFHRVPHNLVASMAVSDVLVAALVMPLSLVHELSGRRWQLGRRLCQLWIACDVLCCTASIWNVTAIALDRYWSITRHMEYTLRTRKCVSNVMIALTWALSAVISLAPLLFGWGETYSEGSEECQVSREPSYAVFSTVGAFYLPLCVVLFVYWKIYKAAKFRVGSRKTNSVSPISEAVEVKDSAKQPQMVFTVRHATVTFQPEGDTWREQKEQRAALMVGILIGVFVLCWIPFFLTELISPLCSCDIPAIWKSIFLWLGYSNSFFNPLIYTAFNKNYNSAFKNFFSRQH

[8] = target: Histamine H2 receptor (Homo sapiens) (UniProt P25021)
Chain of Histamine H2 receptor (Homo sapiens) (P25021 whole entry): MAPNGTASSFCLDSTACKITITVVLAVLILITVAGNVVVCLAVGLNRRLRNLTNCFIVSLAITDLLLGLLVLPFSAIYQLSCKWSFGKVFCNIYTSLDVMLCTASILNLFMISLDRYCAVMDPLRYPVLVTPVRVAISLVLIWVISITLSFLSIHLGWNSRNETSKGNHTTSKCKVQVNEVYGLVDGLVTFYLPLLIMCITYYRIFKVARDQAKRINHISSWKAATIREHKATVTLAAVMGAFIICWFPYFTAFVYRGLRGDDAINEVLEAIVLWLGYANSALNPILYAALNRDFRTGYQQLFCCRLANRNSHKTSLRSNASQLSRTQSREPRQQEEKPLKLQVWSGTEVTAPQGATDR

[9] = target: T2, Muscarinic acetylcholine receptor M1 (Homo sapiens) (UniProt P11229)
T2 sequence (whole entry): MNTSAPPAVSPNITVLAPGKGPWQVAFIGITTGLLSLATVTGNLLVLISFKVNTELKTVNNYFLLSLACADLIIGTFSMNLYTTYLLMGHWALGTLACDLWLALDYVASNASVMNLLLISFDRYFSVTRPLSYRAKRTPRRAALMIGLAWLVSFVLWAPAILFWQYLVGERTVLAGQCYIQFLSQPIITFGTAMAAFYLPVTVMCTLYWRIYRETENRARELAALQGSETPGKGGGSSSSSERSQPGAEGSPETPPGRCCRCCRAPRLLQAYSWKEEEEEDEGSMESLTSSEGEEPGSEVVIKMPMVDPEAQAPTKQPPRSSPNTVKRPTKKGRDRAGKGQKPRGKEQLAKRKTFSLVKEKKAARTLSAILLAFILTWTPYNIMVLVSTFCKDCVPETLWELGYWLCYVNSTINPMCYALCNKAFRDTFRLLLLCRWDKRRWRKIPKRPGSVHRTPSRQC

[10] = target: T3, Muscarinic acetylcholine receptor M4 (Homo sapiens) (UniProt P08173)
T3 sequence (whole entry): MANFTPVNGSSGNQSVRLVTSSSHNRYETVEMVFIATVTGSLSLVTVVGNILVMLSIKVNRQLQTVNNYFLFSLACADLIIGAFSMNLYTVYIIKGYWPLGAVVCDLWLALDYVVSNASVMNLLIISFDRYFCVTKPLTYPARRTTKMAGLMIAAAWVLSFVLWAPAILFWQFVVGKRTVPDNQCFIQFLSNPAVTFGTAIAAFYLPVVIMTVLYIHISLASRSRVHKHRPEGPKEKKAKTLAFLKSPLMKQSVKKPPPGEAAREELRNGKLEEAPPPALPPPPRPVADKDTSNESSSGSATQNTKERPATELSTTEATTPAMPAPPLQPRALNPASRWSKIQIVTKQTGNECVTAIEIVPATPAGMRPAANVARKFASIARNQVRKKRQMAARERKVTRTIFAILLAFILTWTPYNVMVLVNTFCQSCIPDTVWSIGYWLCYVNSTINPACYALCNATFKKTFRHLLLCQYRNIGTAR

[11] = target: T4, Alpha-2A adrenergic receptor (Homo sapiens) (UniProt P08913)
T4 sequence (whole entry): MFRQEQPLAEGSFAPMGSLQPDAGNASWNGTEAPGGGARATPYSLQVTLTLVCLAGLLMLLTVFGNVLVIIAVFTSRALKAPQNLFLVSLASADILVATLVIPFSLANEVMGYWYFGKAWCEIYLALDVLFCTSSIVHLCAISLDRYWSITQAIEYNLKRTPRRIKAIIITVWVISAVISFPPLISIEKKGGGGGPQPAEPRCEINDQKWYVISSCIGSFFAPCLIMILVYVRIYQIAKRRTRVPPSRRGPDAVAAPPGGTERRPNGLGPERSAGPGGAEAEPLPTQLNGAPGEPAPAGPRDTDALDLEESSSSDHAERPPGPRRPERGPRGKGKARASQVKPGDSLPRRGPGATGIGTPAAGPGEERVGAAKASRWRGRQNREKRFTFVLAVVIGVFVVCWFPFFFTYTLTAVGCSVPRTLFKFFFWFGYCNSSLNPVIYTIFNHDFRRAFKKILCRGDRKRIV

[12] = target: D(2) dopamine receptor (Homo sapiens) (UniProt P14416)
Chain of D(2) dopamine receptor (Homo sapiens) (P14416 whole entry): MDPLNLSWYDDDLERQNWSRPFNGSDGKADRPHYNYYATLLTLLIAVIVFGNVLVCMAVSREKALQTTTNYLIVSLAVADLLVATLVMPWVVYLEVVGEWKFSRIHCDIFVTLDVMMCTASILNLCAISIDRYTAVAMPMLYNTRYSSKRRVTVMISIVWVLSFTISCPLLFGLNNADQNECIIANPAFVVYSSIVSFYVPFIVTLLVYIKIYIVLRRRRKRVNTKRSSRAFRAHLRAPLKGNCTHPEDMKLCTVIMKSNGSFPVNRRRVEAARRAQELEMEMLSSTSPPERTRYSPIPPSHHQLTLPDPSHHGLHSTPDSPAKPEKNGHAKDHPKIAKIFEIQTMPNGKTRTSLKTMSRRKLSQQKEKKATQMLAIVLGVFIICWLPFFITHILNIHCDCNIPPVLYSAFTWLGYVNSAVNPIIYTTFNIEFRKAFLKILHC

[13] = target: Sodium-dependent serotonin transporter (Homo sapiens) (UniProt P31645)
Chain of Sodium-dependent serotonin transporter (Homo sapiens) (P31645 whole entry, looked up): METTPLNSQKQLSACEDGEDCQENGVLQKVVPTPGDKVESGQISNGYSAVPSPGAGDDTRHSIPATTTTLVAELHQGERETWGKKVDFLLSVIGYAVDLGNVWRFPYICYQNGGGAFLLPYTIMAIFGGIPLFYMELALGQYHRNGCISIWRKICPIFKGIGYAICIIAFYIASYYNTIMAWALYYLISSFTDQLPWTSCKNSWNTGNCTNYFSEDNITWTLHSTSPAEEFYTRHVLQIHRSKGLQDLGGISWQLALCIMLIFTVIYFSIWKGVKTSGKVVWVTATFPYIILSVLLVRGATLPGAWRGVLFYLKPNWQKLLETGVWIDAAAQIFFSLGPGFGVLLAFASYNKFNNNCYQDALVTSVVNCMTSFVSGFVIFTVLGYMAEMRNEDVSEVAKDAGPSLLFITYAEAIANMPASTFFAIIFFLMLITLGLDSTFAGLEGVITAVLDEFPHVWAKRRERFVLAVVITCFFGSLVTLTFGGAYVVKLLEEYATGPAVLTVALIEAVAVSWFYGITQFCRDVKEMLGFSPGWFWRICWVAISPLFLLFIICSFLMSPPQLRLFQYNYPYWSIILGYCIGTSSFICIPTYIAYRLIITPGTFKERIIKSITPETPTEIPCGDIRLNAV

[14] = target: 5-hydroxytryptamine receptor 2B (Homo sapiens) (UniProt P41595)
Chain of 5-hydroxytryptamine receptor 2B (Homo sapiens) (P41595 whole entry): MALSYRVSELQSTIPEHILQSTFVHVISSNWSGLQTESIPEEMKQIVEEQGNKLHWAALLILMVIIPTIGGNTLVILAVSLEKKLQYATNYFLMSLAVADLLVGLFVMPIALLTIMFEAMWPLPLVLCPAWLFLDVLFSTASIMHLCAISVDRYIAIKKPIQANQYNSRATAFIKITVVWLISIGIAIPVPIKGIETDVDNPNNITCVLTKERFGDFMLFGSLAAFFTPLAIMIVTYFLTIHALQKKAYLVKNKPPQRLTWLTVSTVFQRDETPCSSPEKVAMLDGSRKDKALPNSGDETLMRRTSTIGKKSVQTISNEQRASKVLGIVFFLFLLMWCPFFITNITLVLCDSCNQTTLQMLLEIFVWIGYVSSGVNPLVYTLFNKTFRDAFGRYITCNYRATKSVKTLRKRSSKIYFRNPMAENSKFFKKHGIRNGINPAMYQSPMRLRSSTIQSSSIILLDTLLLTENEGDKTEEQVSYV

[15] = target: 5-hydroxytryptamine receptor 2A (Homo sapiens) (UniProt P28223)
Chain of 5-hydroxytryptamine receptor 2A (Homo sapiens) (P28223 whole entry): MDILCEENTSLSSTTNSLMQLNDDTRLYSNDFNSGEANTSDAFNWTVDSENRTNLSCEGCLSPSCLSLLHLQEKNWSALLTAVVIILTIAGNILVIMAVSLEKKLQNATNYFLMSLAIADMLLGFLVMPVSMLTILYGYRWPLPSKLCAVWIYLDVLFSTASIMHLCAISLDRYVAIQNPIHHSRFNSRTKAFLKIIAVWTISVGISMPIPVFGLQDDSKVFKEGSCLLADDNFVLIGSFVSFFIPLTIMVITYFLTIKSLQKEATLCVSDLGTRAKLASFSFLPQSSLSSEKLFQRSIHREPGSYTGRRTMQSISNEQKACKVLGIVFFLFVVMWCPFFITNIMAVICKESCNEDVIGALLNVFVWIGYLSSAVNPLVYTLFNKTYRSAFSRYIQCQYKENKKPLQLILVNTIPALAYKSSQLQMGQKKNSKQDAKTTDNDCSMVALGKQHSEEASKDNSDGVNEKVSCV

[16] = target: Sigma intracellular receptor 2 (Homo sapiens, UniProt Q5BJF2)
Chain of Sigma intracellular receptor 2 (Q5BJF2 whole entry): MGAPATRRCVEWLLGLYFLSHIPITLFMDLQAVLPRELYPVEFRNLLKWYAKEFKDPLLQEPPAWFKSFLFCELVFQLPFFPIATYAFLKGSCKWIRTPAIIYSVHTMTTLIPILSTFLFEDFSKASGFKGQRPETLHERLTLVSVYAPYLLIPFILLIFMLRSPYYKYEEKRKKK

SMILES | inhibition [1] [%] | inhibition [2] [%] | inhibition [3] [%] | inhibition [4] [%] | inhibition [5] [%] | inhibition [6] [%] | inhibition [7] [%] | inhibition [8] [%] | inhibition [9] [%] | inhibition [10] [%] | inhibition [11] [%] | inhibition [12] [%] | inhibition [13] [%] | inhibition [14] [%] | inhibition [15] [%] | inhibition [16] [%]
Cc1c(N2CCCC2)nc2ccc(Br)cc2c1C(=O)NC[C@H](CCC(=O)O)c1ccccc1Cl [BAY-6672] | 16.1 | 5.06 | 11.7 | 4.61 | -2.2 | 19.9 | -5.32 | 23.3 | 14.3 | 19.4 | -4.59 | 9.71 | -7.59 | 5.5 | 5.24 | 8.52
Cc1c(N2CCNCC2)nc2ccc(Br)cc2c1C(=O)NC[C@H](CCC(=O)O)c1ccccc1Cl [BAY-403] | 5.7 | 38.3 | 40.9 | 17.5 | 15.2 | 18.4 | 11.3 | -4.15 | 8.42 | 16.2 | 65 | 2.75 | 5.34 | 31 | 38 | 60
